Legend:
leukocytes = experiment: Action on leukocyte-phagocytosis; type: cell-based, mouse (ICR); details: Mus musculus, 20 min, 37° C., read-out: potentiating action on leukocyte phagocytosis, ratio of phagocytic leukocytes relative to controls
Protocol: The experiment was performed in accordance with the method by Stossel et al. [Journal of Clinical Investigation, vol. 51, 615 (1972)].
(§1) ICR mice weighing 30-35 g were intraperitoneally administered with glycogen. Three hours later, the leukocytes in the abdominal cavity were collected. A leukocyte suspension of 5×10^6 cells/ml was prepared and the test compound was added to 200 μl of the cell suspension, followed by further addition of 100 μl of mouse serum and 100 μl of dead yeast (1×10^8 particles/ml) thereto. The mixture was incubated at 37° C. for 20 minutes. By observing more than 200 leukocytes in the reaction mixture under a microscope (400 magnifications), the number of the leukocytes which had phagocytosed at least one dead yeast was counted. The ratio of the number of phagocytic leukocytes treated with 0.1 μM of the test compounds relative to that of phagocytic leukocytes of controls was estimated. The potentiating actions on phagocytosis of the compounds of Examples 1 and 9 were 160% and 158% respectively.

benzodiazepine receptors = experiment: Displacement of tritiated diazepam, benzodiazepine receptor binding (synaptosome fraction of cerebral cortex); set-up: species or system rat (male Wistar); details: displacement of 2 nM tritiated diazepam, rat cortex synaptosomes, pH 7.4, 0°C, 20 min; read-out: Affinity to BZP Receptors, Ki
Protocol: The experiment for specific affinity to benzodiazepine receptors was carried out in accordance with the method described in Life Science, vol. 20, 2101 (1977).
The crude cyhaptosome fraction was isolated from the cerebral cortex of male Wistar rats aged 9-10 weeks, and was suspended in 50 mM Tris-hydrochloric acid buffer solution (pH 7.4) containing 120 mM sodium chloride and 5 mM potassium chloride. These suspensions were used for the experiment.
The test compounds in several different concentrations and tritiated diazepam (in final concentration of 2 nM) were added to the synaptosome suspensions, and the mixtures were incubated at 0° C. for 20 minutes. These suspensions were filtered with Whatman GF/B glassfiber filters. After the filters were washed with the above-mentioned buffer solution, the radioactivity left on the filters was measured with the use of a liquid scintillation counter.
Specific binding was determined by subtracting binding in the presence of 10^-6 M unlabeled diazepam from total binding.
According to the foregoing experimental method, the binding force to benzodiazepine receptors of the compound of the present invention is evaluated from its displacement ability for tritiated diazepam at its binding site, which is represented by Ki value (nM).

E. coli 0-111 strain = experiment: Infection-protective action (E. coli infection in cyclophosphamide-treated mice); type: in vivo, mouse (male ICR); details: 3 mg/kg orally for 3 days; 7 days after E. coli inoculation; cyclophosphamide 200 mg/kg i.p.
Protocol: Cyclophosphamide was intraperitoneally administered to male ICR mice (weighing 23-27 g, aged 5 weeks) at the dosage of 200 mg/kg. Four days later, […] of E. coli 0-111 strain was subcutaneously inoculated into the mice (Controls). The test compounds (3 mg/kg) were orally administered to the mice for 3 days from the following day of the administration of cyclophosphamide. The survival rate of the treated mice relative to controls 7 days after the inoculation of E. coli was compared.

peritoneal macrophages = experiment: Action on macrophage-phagocytosis; type: cell-based; details: Rattus norvegicus, read-out: potentiating action on macrophage phagocytosis, relative ratio of phagocytic macrophages
Protocol: as §1
Casein sodium was intraperitoneally administered to rats. Three to four days later, peritoneal macrophages were collected. The phagocytosis was examined, and the relative ratio of phagocytic macrophages of the rat treated with 0.1 μM of the test compound was calculated in the same manner as Experimental Example 4. The potentiating actions on phagocytosis of the compounds of Examples 2, 8 and 10 were 146%, 167% and 148% respectively.

[1] = tested on: amnesia induced by electroconvulsive shock; experiment: Action on experimental amnesia (electroconvulsive shock, step-through passive avoidance); type: in vivo, mouse (male ddY); details: Mus musculus, ip; i.p. immediately after ECS; latency 3 h after acquisition trial; read-out: Anti-amnesia Action, MED
Protocol: The experiment was carried out in accordance with the method described by Sara in Psychopharmacologia, vol. 36, 59 (1974). Male ddY mice weighing 23-26 g, 20 animals per group, were used, and a step-through passive avoidance reflex practicing box consisting of illuminated chamber and dark chamber was used as the experimental apparatus. As the acquisition trial of passive avoidance reflex, the animals were placed in the illuminated chamber and then allowed to enter the dark one. As soon as the animals entered the dark chamber, footshock was applied to the mouse. Experimental amnesia was caused by applying electroconvulsive shock [ECS]soon after the acquisition trial. As the experimental trial, the animals were placed in the illuminated chamber three hours after the acquisition trial, and the time which the animals took to enter the dark chamber (latency) was measured until 600 seconds. The test compounds were administered intraperitoneally (i.p.) immediately after the application of ECS. For the evaluation of the effects, antagonistic actions against the reduction in latency, caused by the application of ESC were examined.

SMILES | activity at 0.1 µM (leukocytes) [%] | Ki (benzodiazepine receptors) [nM] | effect on survival rate relative to controls (E. coli 0-111 strain) | activity at 0.1 µM (peritoneal macrophages) [%] | minimal effective dose [1] [mg/kg]
O=C1CC2CCc3sccc3C2=NN1c1ccccc1 (stereo not drawn) [Example 1, 8-phenyl-4,5,5a,6,7,8-hexahydrothieno[2,3h]cinnolin-7-one] | 160 |  |  |  | 
COc1ccc(N2N=C3c4cc(Br)sc4CCC3CC2=O)cc1 (stereo not drawn) [Example 11, 2-bromo-8-(4-methoxyphenyl)-4,5,5a,6,7,8-hehahydrothieno[2,3-h]cinnolin-7-one] |  | 4.5 | significant increasing effects on survival rate |  | 
Cc1ccc(N2N=C3c4cc(Br)sc4CCC3CC2=O)cc1 (stereo not drawn) [Example 10, 2-bromo-8-(4-methylphenyl)-4,5,5a,6,7,8-hexahydrothieno[2,3-h]cinnolin-7-one] |  | 7 |  | 148 | 
COc1ccc(N2N=C3c4ccsc4CCC3CC2=O)cc1 (stereo not drawn) [Example 9, 8-(4-methoxyphenyl)4,5,5a,6,7,8-hexahydrothieno[2,3-h]cinnolin-7-one] | 158 | 12 |  |  | 0.5
O=C1CC2CCc3sc(Br)cc3C2=NN1c1ccccc1 (stereo not drawn) [Example 4, 2-bromo-8-phenyl-4,5,5a,6,7,8-hexahydrothieno[2,3-h]-cinnolin-7-one] |  | 30 |  |  | 0.5
Cc1ccc(N2N=C3c4ccsc4CCC3CC2=O)cc1 (stereo not drawn) [Example 8, 8-(4-methylphenyl)-4,5,5a,6,7,8-hexahydrothieno[2,3-h]cinnolin-7-one] |  |  | significant increasing effects on survival rate | 167 | 
O=C1CC2CCc3sc(Br)cc3C2=NN1c1ccc(Cl)cc1 (stereo not drawn) [Example 6, 2-bromo-8-(4-chlorophenyl)-4,5,5a,6,7,8-hexahydrothieno[2,3-h]cinnolin-7-one] |  | 12 |  |  | 
O=C1CC2CCc3sccc3C2=NN1c1ccc(Cl)cc1 (stereo not drawn) [Example 2, 8-(4-chlorophenyl)4,5,5a,6,7,8-hexahydrothieno[2,3-h]cinnolin-7-one] |  |  | significant increasing effects on survival rate | 146 | 
O=C1CC2CCc3sc(Br)cc3C2=NN1c1ccccn1 (stereo not drawn) [Example 7, 2-bromo-8-(2-pyridyl)-4,5,5a,6,7,8-hexahydrothieno[2,3-h]cinnolin-7-one] |  | 60 |  |  | < 0.5
O=C1CC2CCc3sccc3C2=NN1c1ccccn1 (stereo not drawn) [Example 3, 8-(2-pyridyl)4,5,5a,6,7,8-hexahydrothieno[2,3-h]cinnolin-7-one] |  | 280 |  |  | 0.1
COc1ccc(N2N=C3c4cc(C)sc4CCC3CC2=O)cc1 (stereo not drawn) [Example 14, 2-Methyl-8-(4-methoxyphenyl)-4,5,5a,6,7,8-hexahydrothieno[2,3-h]cinnolin-7-one] |  | 5.1 |  |  | 0.25
Cc1ccc(N2N=C3c4cc(C)sc4CCC3CC2=O)cc1 (stereo not drawn) [Example 24, 2-Methyl-8-(4-methylphenyl)-4,5,5a,6,7,8-hexahydrothieno[2,3-h]cinnolin-7-one] |  | 10 |  |  | 
Cc1cc2c(s1)CCC1CC(=O)N(c3ccccc3)N=C21 (stereo not drawn) [Example 5, 2-methyl-8-phenyl-4,5,5a,6,7,8-hexahydrothieno[2,3-h]cinnolin-7-one] |  | 18 |  |  | 0.25
